Measurements reported in patent US11345675B2, “Compound, anti-allergy drug, and mediator release inhibitor” (LAIMU CORPORATION, priority 2018, dated 2022).
Entries after “also recorded” stand apart in the source; their conditions may differ.

Key:
[1] = test system: rat basophilic leukemia cells RBL-2H3; experiment: Degranulation inhibiting test (β-hexosaminidase release induced by antigen-antibody reaction); format: cell-based; conditions: RBL-2H3 cells, anti-DNP-IgE/DNP-HSA stimulation; compounds 1, 2 and 6-sPalm-AA-2G at 40, 60 or 80 μM, oxatomide 75 μM; FIG. 1
Experimental: In this Example, the compound 1 and the compound 2 were evaluated in terms of the effect thereof to inhibit degranulation to be induced by stimulation of an antigen-antibody reaction. Degranulation was quantified based on, as an index, β-hexosaminidase release from rat basophilic leukemia cells RBL-2H3. Specifically, β-hexosaminidase is an enzyme released through degranulation of mast cells or basocytes, and through enzymatic reaction with a substrate, p-nitrophenyl-2-acetamide-2-deoxy-β-glucopyranoside, this increases the absorbance at 405 nm of the reaction liquid. Here, the degranulation inhibiting effect was evaluated from the absorbance change as an index of β-hexosaminidase release amount (degree of degranulation).
The compound 1 and the compound 2 were individually dissolved in a 0.25% dimethyl sulfoxide-containing MT buffer at a concentration of 40 μM, 60 μM or 80 μM to prepare solutions to be evaluation samples. On the other hand, as comparative samples, 6-sPalm-AA-2G was dissolved in a 0.25% dimethyl sulfoxide-containing MT buffer at a concentration of 40 μM, 60 μM or 80 μM to prepare solutions, and oxatomide was dissolved in a 0.25% dimethyl sulfoxide-containing MT buffer at a concentration of 75 μM to prepare a solution. […]

[2] = test system: PCA (passive cutaneous anaphylaxis) reaction; experiment: PCA reaction inhibition test (Evans blue dye leakage in auricle); format: in vivo; conditions: applied to auricle of ICR male mice, 90 nmol/auricle (6-sPalm-AA-2G 150 nmol/auricle), 3.5 hours before DNP-HSA-Evans blue i.v.; FIG. 2
Experimental: In this Example, the anti-allergy activity of the compound 1 and the compound 2 was evaluated based on, as an index, the inhibiting effect thereof against PCA (passive cutaneous anaphylaxis) reaction. PCA reaction is a series of cell reaction of an allergy reaction including immobilization of mast cells via an Fc part of immunoglobulin, antigen-antibody reaction on the cells, release of inflammatory mediator from the mast cells through the reaction and promotion of vascular permeability. Here, after an anti-DNP-IgE antibody solution has been subcutaneously administered to a test body, a solution containing a 2,4-dinitrophenyl group (DNP)-labeled human serum albumin (HSA) and a dye (Evans blue) (DNP-HSA-Evans blue solution) is intravenously administered, and the vascular permeability increase according to the antigen-antibody reaction is quantified by the absorbance increase owing to dye leakage from the blood vessel to the tissue to thereby evaluate the PCA reaction inhibiting effect. […]
An aqueous 1 N potassium hydroxide solution (0.5 mL) was added to the thus-cut auricle, and shaken at 37° C. overnight. After shaking, a mixed solution (3.25 mL) of aqueous 0.34 M phosphoric acid solution/acetone=13/5 (v/v) was added, and centrifuged by 700×g at 4° C. for 20 minutes, and the absorbance at 620 nm of the supernatant was measured. […]

Row | Compound | β-hexosaminidase release inhibition ratio (degranulation inhibition ratio) [1] | dye leakage (relative absorbance at 620 nm, control = 100) [2]
1 | CCCCCCCCCCCCCCCC(=O)OC[C@H](O)[C@H]1OC(=O)C(OC)=C1O [compound 1] | greatly higher than the degranulation inhibition ratio of the system added with 6-sPalm-AA-2G, and surpasses the degranulation inhibition ratio of the system added with oxatomide | lower than the dye leakage in the system with 6-sPalm-AA-2G
2 | CCCCCCCCCCCCCCCC(=O)NC[C@H](O)[C@H]1OC(=O)C(OC)=C1O [compound 2] | greatly higher than the degranulation inhibition ratio of the system added with 6-sPalm-AA-2G, and surpasses the degranulation inhibition ratio of the system added with oxatomide; also recorded: tends to have a higher degranulation inhibiting effect than the compound 1 | lower than the dye leakage in the system with 6-sPalm-AA-2G; also recorded: suppressed more than that in the system where oxatomide had been applied; also recorded: tends to have a higher anti-allergy activity than the compound 1
